# Experimental data reported in patent US12678446B2 (PFIZER INC., priority 2020, dated 2026).
# Read-outs that look alike come from different tables or passages of the source.
# What was measured:
# [1] = test system: RSV (RSV A2 ECACC, 0709161v); assay: RSV plaque reduction assay; assay type: cell-based, respiratory syncytial virus; conditions: mean of at least two experiments unless noted (n = 1)
# How it was run: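 Hep-G2 monolayers infected with 100 PFU/well RSV A2 premixed with eight serial compound dilutions (2 h, 37° C.), then kept 2 days under CMC overlay with compound in DMEM/2% FBS. Plaques immunostained (HRP/TrueBlue) and counted; % infection versus virus control gives EC50, mean of at least two experiments, rounded.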
# Hep-G2 cells = assay: cell toxicity CC50; assay type: cell-based; conditions: mean of at least two experiments, read-out: Cell Cytotoxicity CC50
# cell toxicity CC50 = assay type: cell-based; conditions: human; Hep-G2 cells; mean of at least two experiments; read-out: Cell Cytotoxicity CC50
# [2] = RSV A2 in Hep-G2 cells, read-out: RSV A2 Plaque EC50
# [3] = read-out: RSV A2 Plaque EC50, RSV A2 in Hep-G2 cells
# [4] = human respiratory syncytial virus, HepG2, read-out: RSV A2 Plaque EC50, RSV A2 in Hep-G2 cells
Compound,"EC50 [1, 2] [nM]",CC50 (Hep-G2 cells) [µM],"EC50 [1, 3] [nM]","EC50 [1, 4] [nM]",CC50 (cell toxicity CC50) [µM]
"2-(2,6-Difluorophenyl)-N-[(3S)-9-fluoro-2-oxo-5-phenyl-1,3-dihydro-1,4-benzodiazepin-3-yl]-6,7-dihydro-5H-pyrazolo[5,1-b][1,3]oxazine-3-carboxamide [Example 196]",25,> 25,–,–,–
"2-[2-Fluoro-4- (hydroxymethyl)phe- nyl]-N-[(3S)-9- fluoro-2-oxo-5- phenyl-1,3-dihydro- 1,4-benzodiazepin-3- yl]-6,7-dihydro-5H- pyrazolo[5,1- b][1,3]oxazine-3- carboxamide [Example 134]",83,> 25,–,–,–
"O=C(N[C@H]1N=C(c2ccccc2)c2cccc(F)c2NC1=O)c1c(-c2ccccc2F)nn2c1OCC(CO)C2 (single isomer, unassigned) [Example 110-2, (6S*)-N-[(3S)-9-fluoro-2-oxo-5-phenyl-1,3-dihydro-1,4-benzodiazepin-3-yl]-2-(2-fluorophenyl)-6-(hydroxymethyl)-6,7-dihydro-5H-pyrazolo[5,1-b][1,3]oxazine-3-carboxamide]",–,> 25,61,–,–
"O=C(N[C@H]1N=C(c2ccccc2)c2cccc(F)c2NC1=O)c1c(-c2c(F)cccc2F)nn2c1OCC(CO)C2 (single isomer, unassigned) [Example 129-2, (6S*)-2-(2,6-Difluorophenyl)-N-[(3S)-9-fluoro-2-oxo-5-phenyl-1,3-dihydro-1,4-benzodiazepin-3-yl]-6-(hydroxymethyl)-6,7-dihydro-5H-pyrazolo[5,1-b][1,3]oxazine-3-carboxamide]",–,> 25,73,–,–
"O=C(N[C@H]1N=C(c2ccccc2)c2ccccc2NC1=O)c1c(-c2c(F)cccc2F)nn2c1OC(CO)CC2 (single isomer, unassigned) [Example 188-2, (5S*)-2-(2,6-Difluorophenyl)-5-(hydroxymethyl)-N-[(3S)-2-oxo-5-phenyl-1,3-dihydro-1,4-benzodiazepin-3-yl]-6,7-dihydro-5H-pyrazolo[5,1-b][1,3]oxazine-3-carboxamide]",–,> 25,281,–,–
"O=C(N[C@H]1N=C(c2ccccc2)c2cccc(F)c2NC1=O)c1c(-c2c(F)cccc2F)nn2c1OC(CO)CC2 (single isomer, unassigned) [Example 189-2, (5S*)-2-(2,6-Difluorophenyl)-N-[(3S)-9-fluoro-2-oxo-5-phenyl-1,3-dihydro-1,4-benzodiazepin-3-yl]-5-(hydroxymethyl)-6,7-dihydro-5H-pyrazolo[5,1-b][1,3]oxazine-3-carboxamide]",–,> 25,72,–,–
"O=C(N[C@H]1N=C(c2ccccc2)c2cccc(F)c2NC1=O)c1c(-c2ccccc2F)nn2c1OC(CO)CC2 (single isomer, unassigned) [Example 190-2, (5S*)-2-(2-Fluorophenyl)-5-(hydroxymethyl)-N-[(3S)-9-fluoro-2-oxo-5-phenyl-1,3-dihydro-1,4-benzodiazepin-3-yl]-6,7-dihydro-5H-pyrazolo [5,1-b][1,3]oxazine-3-carboxamide]",–,> 25,154,–,–
"COCC1CCn2nc(-c3ccccc3F)c(C(=O)N[C@H]3N=C(c4ccccc4)c4cccc(F)c4NC3=O)c2O1 (single isomer, unassigned) [Example 191-2, (5S*)-N-[(3S)-9-fluoro-2-oxo-5-phenyl-1,3-dihydro-1,4-benzodiazepin-3-yl]-2-(2-fluorophenyl)-5-(methoxymethyl)-6,7-dihydro-5H-pyrazolo[5,1-b][1,3]oxazine-3-carboxamide]",–,> 25,280,–,–
"CCNc1ccc(-c2nn3c(c2C(=O)N[C@H]2N=C(c4ccccc4)c4cccc(F)c4NC2=O)OCCC3)c(F)n1 [Example 3, 2-[6-(Ethylamino)-2-fluoropyridin-3-yl]-N-[(3S)-9-fluoro-2-oxo-5-phenyl-1,3-dihydro-1,4-benzodiazepin-3-yl]-6,7-dihydro-5H-pyrazolo[5,1-b][1,3]oxazine-3-carboxamide]",20,> 25,–,–,–
"O=C(N[C@H]1N=C(c2ccccc2)c2cccc(F)c2NC1=O)c1c(-c2ccccc2F)nn2c1OC(CO)CC2 (stereo partly drawn) [Example 123, N-[(3S)-9-Fluoro-2-oxo-5-phenyl-1,3-dihydro-1,4-benzodiazepin-3-yl]-2-(2-fluorophenyl)-5-(hydroxymethyl)-6,7-dihydro-5H-pyrazolo[5,1-b][1,3]oxazine-3-carboxamide]",79,> 25,–,–,–
"C[C@@H]1CCn2nc(-c3cc(S(C)(=O)=O)ccc3F)c(C(=O)N[C@H]3N=C(c4ccccc4)c4cccc(F)c4NC3=O)c2O1 [Example 198, (5R)-2-(2-Fluoro-5-methylsulfonylphenyl)-N-[(3S)-9-fluoro-2-oxo-5-phenyl-1,3-dihydro-1,4-benzodiazepin-3-yl]-5-methyl-6,7-dihydro-5H-pyrazolo[5,1-b][1,3]oxazine-3-carboxamide]",–,–,–,35,> 25
"C[C@@H]1CCn2nc(-c3ccc(S(N)(=O)=O)cc3F)c(C(=O)N[C@H]3N=C(c4ccccc4)c4cccc(F)c4NC3=O)c2O1 [Example 199, (5R)-N-[(3S)-9-Fluoro-2-oxo-5-phenyl-1,3-dihydro-1,4-benzodiazepin-3-yl]-2-(2-fluoro-4-sulfamoylphenyl)-5-methyl-6,7-dihydro-5H-pyrazolo[5,1-b][1,3]oxazine-3-carboxamide]",–,–,–,64,> 25
"C[C@@H]1CCn2nc(-c3ccc(S(=O)(=O)N(C)C)cc3F)c(C(=O)N[C@H]3N=C(c4ccccc4)c4cccc(F)c4NC3=O)c2O1 [Example 200, (5R)-2-[4-(Dimethylsulfamoyl)-2-fluorophenyl]-N-[(3S)-9-fluoro-2-oxo-5-phenyl-1,3-dihydro-1,4-benzodiazepin-3-yl]-5-methyl-6,7-dihydro-5H-pyrazolo[5,1-b][1,3]oxazine-3-carboxamide]",–,–,–,1,> 25
"CCS(=O)(=O)N1CCC(c2nn3c(c2C(=O)N[C@H]2N=C(c4ccccc4)c4cccc(F)c4NC2=O)O[C@H](C)CC3)CC1 [Example 201, (5R)-2-(1-Ethylsulfonylpiperidin-4-yl)-N-[(3S)-9-fluoro-2-oxo-5-phenyl-1,3-dihydro-1,4-benzodiazepin-3-yl]-5-methyl-6,7-dihydro-5H-pyrazolo[5,1-b][1,3]oxazine-3-carboxamide]",–,–,–,49,> 25
"C[C@@H]1Cn2nc(-c3ccccc3F)c(C(=O)N[C@H]3N=C(c4ccccc4)c4ccccc4NC3=O)c2O1 [Example 202, (2R)-6-(2-Fluorophenyl)-2-methyl-N-[(3S)-2-oxo-5-phenyl-1,3-dihydro-1,4-benzodiazepin-3-yl]-2,3-dihydropyrazolo[5,1-b][1,3]oxazole-7-carboxamide]",–,–,–,127,> 25
"(5R)-2-(2-Fluoro-6-methylpyridin-3-yl)-5-methyl-N-[(3S)-2-oxo-5-phenyl-1,3-dihydro-1,4-benzodiazepin-3-yl]-6,7-dihydro-5H-pyrazolo[5,1-b][3,1]oxazine-3-carboxamide [Example 72]",100,> 25,–,–,–
"(5R)-2-[1- (Difluoromethyl)pyra- zol-4-yl]-N-[(3S)-9- fluoro-2-oxo-5- phenyl-1,3-dihydro- 1,4-benzodiazepin-3- yl]-5-methyl-6,7- dihydro-5H- pyrazolo[5,1- b][1,3]oxazine-3- carboxamide [Example 120]",97,> 25,–,–,–
"(5R)-2-[2-Fluoro-4- (hydroxymethyl)phe- nyl]-N-[(3S)-9- fluoro-2-oxo-5- phenyl-1,3-dihydro- 1,4-benzodiazepin-3- yl]-5-methyl-6,7- dihydro-5H- pyrazolo[5,1- b][1,3]oxazine-3- carboxamide [Example 153]",63,> 25,–,–,–
"(5R)-N-[(3S)-9- fluoro-2-oxo-5- phenyl-1,3-dihydro- 1,4-benzodiazepin-3- yl]-5-methyl-2-(1- propan-2-ylpyrazol- 4-yl)-6,7-dihydro- 5H-pyrazolo[5,1- b][1,3]oxazine-3- carobxamide [Example 112]",50,> 25,–,–,–
"(5R)-N-[(3S)-9- fluoro-2-oxo-5- phenyl-1,3-dihydro- 1,4-benzodiazepin-3- yl]-5-methyl-2-[1- (oxan-4-yl)pyrazol- 4-yl]-6,7-dihydro- 5H-pyrazolo[5,1- b][1,3]oxazine-3- carboxamide [Example 111]",64,> 25,–,–,–
"N-[(3S)-9-fluoro-2- oxo-5-phenyl-1,3- dihydro-1,4- benzodiazepin-3-yl]-2- (2-fluorophenyl)-6- (morpholin-4- ylmethyl)-6,7-dihydro- 5H-pyrazolo[5,1- b][1,3]oxazine-3- carboxamide [Example 173]",91,> 25,–,–,–
"N-[(3S)-9-fluoro-2- oxo-5-phenyl-1,3- dihydro-1,4- benzodiazepin-3-yl]- 2-(2-fluorophenyl)- 6-(hydroxymethyl)- 6,7-dihydro-5H- pyrazolo[5,1- b][1,3]oxazine-3- carboxamide [Example 110]",51,> 25,–,–,–
"N-[(3S)-9-fluoro-2- oxo-5-phenyl-1,3- dihydro-1,4- benzodiazepin-3-yl]- 2-(2-fluorophenyl)- 6-(methoxymethyl)- 6,7-dihydro-5H- pyrazolo[5,1- b][1,3]oxazine-3- carboxmaide [Example 113]",53,> 19.4,–,–,–
